From PubChem BioAssay (NCI)
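Compound exposure: 48 hours, 5 concentrations, 96-well plates. The concentration for full growth arrest is given as TGI.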

Assays:
Experiment in all cases: NCI tumour cell line growth inhibition, 48 h
MOLT-4 leukemia = test system: MOLT-4 leukemia
COLO 205 colon = test system: COLO 205 colon
NCI-H23 lung = test system: NCI-H23 lung
SF-295 CNS = test system: SF-295 CNS
UO-31 renal = test system: UO-31 renal
OVCAR-8 ovarian = test system: OVCAR-8 ovarian
M14 melanoma = test system: M14 melanoma
A549 NSCLC = test system: A549 NSCLC
OVCAR-3 ovarian = test system: OVCAR-3 ovarian
UACC-62 melanoma = test system: UACC-62 melanoma
HCT-15 colon = test system: HCT-15 colon
NCI-H460 lung = test system: NCI-H460 lung
HL-60(TB) leukemia = test system: HL-60(TB) leukemia
HOP-62 NSCLC = test system: HOP-62 NSCLC
MDA-N = test system: MDA-N
UACC-257 melanoma = test system: UACC-257 melanoma
SNB-75 CNS = test system: SNB-75 CNS
SK-MEL-5 melanoma = test system: SK-MEL-5 melanoma
MALME-3M melanoma = test system: MALME-3M melanoma
SW-620 colon = test system: SW-620 colon

Compound	TGI (MOLT-4 leukemia) [µM]	TGI (COLO 205 colon) [µM]	TGI (NCI-H23 lung) [µM]	TGI (SF-295 CNS) [µM]	TGI (UO-31 renal) [µM]	TGI (OVCAR-8 ovarian) [µM]	TGI (M14 melanoma) [µM]	TGI (A549 NSCLC) [µM]	TGI (OVCAR-3 ovarian) [µM]	TGI (UACC-62 melanoma) [µM]	TGI (HCT-15 colon) [µM]	TGI (NCI-H460 lung) [µM]	TGI (HL-60(TB) leukemia) [µM]	TGI (HOP-62 NSCLC) [µM]	TGI (MDA-N) [µM]	TGI (UACC-257 melanoma) [µM]	TGI (SNB-75 CNS) [µM]	TGI (SK-MEL-5 melanoma) [µM]	TGI (MALME-3M melanoma) [µM]	TGI (SW-620 colon) [µM]
COc1cc(OC)c(OC)cc1/C=N/N=C(\N)NO	> 100	> 100	> 100	> 100	> 100	> 100	> 100	> 100	> 100	> 100	> 100	> 100	> 100	> 100	> 100	> 100	93.5	> 100	> 100	> 100
CCCCCC/C=C\CCCCCCCCCc1cccc(O)c1C(=O)O	> 100	> 100	> 100	> 100	> 100	> 100	> 100	> 100	> 100	> 100	> 100	> 100	> 100	> 100	> 100	> 100	> 100	> 100	> 100	> 100
O=C(N=S(NC(=O)c1ccccc1)C(Cl)(Cl)Cl)c1ccccc1 (stereo not given)	30.7	29.4	30	> 59	29.9	38.8	30.7	> 100	> 77.7	> 100	27	> 70.9	13.7	> 31.6	> 100	83.8	> 100	20.5	37.9	15.9
COc1nc(N)c(NC2OC(CO)C(O)C2O)c(=O)[nH]1 (stereo not given)	> 100	> 100	> 100	> 100	> 100	> 100	> 100	> 100	> 100	> 100	> 100	> 100	> 100	> 100	> 100	> 100	> 100	> 100	> 100	> 100
C1=NCCNCCN=Cc2ccc(cc2)OCc2cccc(n2)COc2ccc1cc2	> 100	> 100	> 100	> 100	> 100	> 100	> 100	> 100	> 100	> 100	> 100	> 100	> 100	52.9	> 100	> 100	> 100	> 100	> 100	> 100
CC(=O)OC1C(O)COC(O[C@H]2CC[C@]34C[C@]35CC[C@]3(C)C([C@@]6(C)CC[C@@H](C(C)(C)O)O6)[C@@H](O)C[C@@]3(C)C5C[C@H](OC3OCC(O)C(O)C3O)[C@H]4C2(C)C)C1OC1OCC(O)C(O)C1O (stereo not given in full)	> 100	> 100	> 100	> 100	> 100	> 100	> 100	> 100	> 100	> 100	> 100	> 100	> 100	> 100	> 100	> 100	> 100	> 100	> 100	> 100
COC(=O)C1C(OC(=O)c2ccccc2)CC2CCC1N2C(N)=O (stereo not given)	> 100	> 100	> 100	> 100	> 100	> 100	> 100	> 100	> 100	> 100	> 100	> 100	> 100	> 100	> 100	> 100	> 100	> 100	> 100	> 100
COc1nc2c(c(=O)n1C)N(C(C)=O)C1C(N2)OCC(OC(C)=O)C1OC(C)=O (stereo not given)	> 10	> 10	> 10	> 10	> 10	> 10	> 10	> 10	> 10	> 10	> 10	> 10	> 10	> 10	> 10	> 10	> 10	> 10	> 10	> 10
COC(=O)C1CCC(=O)N1CN(C(C)=O)c1ccccc1 (stereo not given)	> 100	> 100	> 100	> 100	> 100	> 100	> 100	> 100	> 100	> 100	> 100	> 100	> 100	> 100	> 100	> 100	> 100	> 100	> 100	> 100
COc1ccc(NC2Oc3cc4c(cc3C(c3cccc(OC)c3OC)C2C)OCO4)cc1 (stereo not given)	35.9	19.2	79.5	32.3	> 100	> 100	> 100	> 100	> 100	> 100	> 100	> 100	10.9	> 100	> 100	69.2	> 100	56	82.3	> 100
O=C(NCCCCCCCCNC(=O)c1cc(-c2ccccc2)nc2ccccc12)c1cc(-c2ccccc2)nc2ccccc12	> 100	> 100	> 100	> 100	> 100	> 100	> 100	> 100	> 100	> 100	> 100	> 100	> 100	> 100	> 100	> 100	> 100	> 100	> 100	> 100
